Results from article PMC9945734 (BMC Medicine, 2023).
Like-named read-outs stand apart in the source and are kept apart here.

Tested on: PC-3-KQ cells
Test: 3D spheroid invasion assay and screening of FDA-approved drugs
Format: cell-based, human
Design: activity: dose or concentration left out as unconfirmed
Summary of the method: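 Cells were clustered into spheroids by centrifugation and grown 3 days, then embedded in matrigel-medium containing drug on day 4 and cultured another 3 days. Drugs were screened at 10 μM first, then at 0–10 μM, in duplicate wells. Invasion area is total area minus core sphere area from phase-contrast images.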

[1] = Homo sapiens, 72 h, 0.01 μM (first column so headed), secondary screening of 87 hit compounds (Table S1), compared to vehicle control, read-out: Invasion rates (%) of each drug’s multiple concentrations
[2] = Homo sapiens, 72 h, 0.01 μM (second column so headed), secondary screening of 87 hit compounds (Table S1), compared to vehicle control, read-out: Invasion rates (%) of each drug’s multiple concentrations
[3] = Homo sapiens, 72 h, 0.1 μM, secondary screening of 87 hit compounds (Table S1), compared to vehicle control, read-out: Invasion rates (%) of each drug’s multiple concentrations
[4] = Homo sapiens, 72 h, 1 μM, secondary screening of 87 hit compounds (Table S1), compared to vehicle control, read-out: Invasion rates (%) of each drug’s multiple concentrations
[5] = Homo sapiens, 72 h, 10 μM, secondary screening of 87 hit compounds (Table S1), compared to vehicle control, read-out: Invasion rates (%) of each drug’s multiple concentrations
[6] = 0.01 μM (first column so headed), secondary screening of 87 hit compounds (Table S1), compared to vehicle control
[7] = 0.01 μM (second column so headed), secondary screening of 87 hit compounds (Table S1), compared to vehicle control
[8] = 0.1 μM, secondary screening of 87 hit compounds (Table S1), compared to vehicle control
[9] = 1 μM, secondary screening of 87 hit compounds (Table S1), compared to vehicle control
[10] = 10 μM, secondary screening of 87 hit compounds (Table S1), compared to vehicle control

C=CC(=O)Nc1cc(Nc2nccc(-c3cn(C)c4ccccc34)n2)c(OC)cc1N(C)CCN(C)C [Osimertinib]
activity at 0.01 µM [1]: 89%
activity at 0.01 µM [2]: 98.8%
activity at 0.1 µM [3]: 86.4%
activity at 1 µM [4]: 83.8%
activity at 10 µM [5]: 5.6%

COc1cccc2c1C(=O)c1c(O)c3c(c(O)c1C2=O)C[C@@](O)(C(=O)CO)C[C@@H]3O[C@H]1C[C@H](N)[C@H](O[C@@H]2CCCCO2)[C@H](C)O1.Cl [Pirarubicin (Hydrochloride)]
Invasion rates (%) of each drug’s multiple concentrations (μM) [6]: 87.28%
Invasion rates (%) of each drug’s multiple concentrations (μM) [7]: 91.46%
Invasion rates (%) of each drug’s multiple concentrations (μM) [8]: 86.00%
Invasion rates (%) of each drug’s multiple concentrations (μM) [9]: 81.69%
Invasion rates (%) of each drug’s multiple concentrations (μM) [10]: 10.50%

COc1cc(Nc2c(C#N)cnc3cc(OCCCN4CCN(C)CC4)c(OC)cc23)c(Cl)cc1Cl [Bosutinib]
activity at 0.01 µM [1]: 90.7%
activity at 0.01 µM [2]: 97.2%
activity at 0.1 µM [3]: 87.3%
activity at 1 µM [4]: 69.9%
activity at 10 µM [5]: 10.1%

COc1cccc2c1C(=O)c1c(O)c3c(c(O)c1C2=O)C[C@@](O)(C(=O)CO)C[C@@H]3O[C@H]1C[C@H](N)[C@@H](O)[C@H](C)O1.Cl [Epirubicin (hydrochloride)]
Invasion rates (%) of each drug’s multiple concentrations (μM) [6]: 94.42%
Invasion rates (%) of each drug’s multiple concentrations (μM) [7]: 95.60%
Invasion rates (%) of each drug’s multiple concentrations (μM) [8]: 93.22%
Invasion rates (%) of each drug’s multiple concentrations (μM) [9]: 88.57%
Invasion rates (%) of each drug’s multiple concentrations (μM) [10]: 4.65%

Cl.Cl.O=C1c2c(O)ccc(O)c2C(=O)c2c(NCCNCCO)ccc(NCCNCCO)c21 [Mitoxantrone (dihydrochloride)]
Invasion rates (%) of each drug’s multiple concentrations (μM) [6]: 88.48%
Invasion rates (%) of each drug’s multiple concentrations (μM) [7]: 95.77%
Invasion rates (%) of each drug’s multiple concentrations (μM) [8]: 89.03%
Invasion rates (%) of each drug’s multiple concentrations (μM) [9]: 87.29%
Invasion rates (%) of each drug’s multiple concentrations (μM) [10]: 31.96%

CC[C@@]1(O)C(=O)OCc2c1cc1n(c2=O)Cc2cc3cc(O)ccc3nc2-1 [(S)-10-Hydroxycamptothecin]
activity at 0.01 µM (Homo sapiens, 72 h, read-out: Invasion rates (%) of each drug’s multiple concentrations (μM), 0.01 μM (first column so headed), secondary screening of 87 hit compounds (Table S1), compared to vehicle control): 93.7%
activity at 0.01 µM (Homo sapiens, 72 h, read-out: Invasion rates (%) of each drug’s multiple concentrations (μM), 0.01 μM (second column so headed), secondary screening of 87 hit compounds (Table S1), compared to vehicle control): 98.2%
activity at 0.1 µM (Homo sapiens, 72 h, read-out: Invasion rates (%) of each drug’s multiple concentrations (μM), 0.1 μM, secondary screening of 87 hit compounds (Table S1), compared to vehicle control): 85%
activity at 1 µM (Homo sapiens, 72 h, read-out: Invasion rates (%) of each drug’s multiple concentrations (μM), 1 μM, secondary screening of 87 hit compounds (Table S1), compared to vehicle control): 89.9%
activity at 10 µM (Homo sapiens, 72 h, read-out: Invasion rates (%) of each drug’s multiple concentrations (μM), 10 μM, secondary screening of 87 hit compounds (Table S1), compared to vehicle control): 85.1%

CNC(=O)c1cc(Oc2ccc(NC(=O)Nc3ccc(Cl)c(C(F)(F)F)c3)cc2)ccn1 [Sorafenib]
activity at 0.01 µM [1]: 91.9%
activity at 0.01 µM [2]: 101%
activity at 0.1 µM [3]: 91.9%
activity at 1 µM [4]: 76.2%
activity at 10 µM [5]: 43.3%

Daptomycin
Invasion rates (%) of each drug’s multiple concentrations (μM) [6]: 96.29%
Invasion rates (%) of each drug’s multiple concentrations (μM) [7]: 96.99%
Invasion rates (%) of each drug’s multiple concentrations (μM) [8]: 95.71%
Invasion rates (%) of each drug’s multiple concentrations (μM) [9]: 88.47%
Invasion rates (%) of each drug’s multiple concentrations (μM) [10]: 1.26%

Cc1ncc([N+](=O)[O-])n1CC(O)CN1CCOCC1 (stereo not shown) [Morinidazole]
activity at 0.01 µM [1]: 83.3%
activity at 0.01 µM [2]: 89.7%
activity at 0.1 µM [3]: 75.5%
activity at 1 µM [4]: 60%
activity at 10 µM [5]: 4%

NC(=O)N/N=C/c1ccc([N+](=O)[O-])o1 [Nitrofurazone]
activity at 0.01 µM [1]: 94.8%
activity at 0.1 µM [3]: 80.4%
activity at 1 µM [4]: 70.7%
activity at 10 µM [5]: 6.3%
activity (Homo sapiens, 72 h, secondary screening of 87 hit compounds (Table S1), compared to vehicle control, read-out: Invasion rates (%) of each drug’s multiple concentrations): 98.8%

Nc1c2ccccc2nc2ccccc12 [9-Aminoacridine]
activity at 0.01 µM [1]: 96%
activity at 0.01 µM [2]: 93.3%
activity at 0.1 µM [3]: 94.7%
activity at 1 µM [4]: 86.4%
activity at 10 µM [5]: 1.63%

Cc1ncc([N+](=O)[O-])n1C [Dimetridazole]
activity at 0.01 µM [1]: 95.7%
activity at 0.01 µM [2]: 97.8%
activity at 0.1 µM [3]: 88.8%
activity at 1 µM [4]: 71%
activity at 10 µM [5]: 3.61%

Cc1ncc([N+](=O)[O-])n1CC(C)O (stereo not shown) [Secnidazole]
activity at 0.01 µM [1]: 94.7%
activity at 0.01 µM [2]: 96.4%
activity at 0.1 µM [3]: 89%
activity at 1 µM [4]: 82.8%
activity at 10 µM [5]: 4.4%

Cc1ncc([N+](=O)[O-])n1CC(O)CN1CCOCC1 (single isomer, unassigned) [Morinidazole (R enantiomer)]
Invasion rates (%) of each drug’s multiple concentrations (μM) [6]: 90.71%
Invasion rates (%) of each drug’s multiple concentrations (μM) (0.01 μM (first column so headed), third screening of 25 hit compounds (Table S2), compared to vehicle control): 95.71%
Invasion rates (%) of each drug’s multiple concentrations (μM) [7]: 98.08%
Invasion rates (%) of each drug’s multiple concentrations (μM) (0.01 μM (second column so headed), third screening of 25 hit compounds (Table S2), compared to vehicle control): 97.64%
Invasion rates (%) of each drug’s multiple concentrations (μM) [8]: 89.69%
Invasion rates (%) of each drug’s multiple concentrations (μM) (0.1 μM, third screening of 25 hit compounds (Table S2), compared to vehicle control): 94.21%
Invasion rates (%) of each drug’s multiple concentrations (μM) [9]: 10.13%
Invasion rates (%) of each drug’s multiple concentrations (μM) (1 μM, third screening of 25 hit compounds (Table S2), compared to vehicle control): 6.21%
Invasion rates (%) of each drug’s multiple concentrations (μM) [10]: 2.86%
Invasion rates (%) of each drug’s multiple concentrations (μM) (10 μM, third screening of 25 hit compounds (Table S2), compared to vehicle control): 0.38%

CN(C)c1ccc(O)c2c1C[C@H]1C[C@H]3[C@H](N(C)C)C(=O)C(C(N)=O)=C(O)[C@@]3(O)C(=O)C1=C2O.Cl [Minocycline (hydrochloride)]
Invasion rates (%) of each drug’s multiple concentrations (μM) [6]: 87.07%
Invasion rates (%) of each drug’s multiple concentrations (μM) [7]: 98.27%
Invasion rates (%) of each drug’s multiple concentrations (μM) [8]: 80.93%
Invasion rates (%) of each drug’s multiple concentrations (μM) [9]: 62.17%
Invasion rates (%) of each drug’s multiple concentrations (μM) [10]: 5.40%

CCCCCCCCN=c1ccn(CCCCCCCCCCn2ccc(=NCCCCCCCC)cc2)cc1.Cl.Cl [Octenidine (dihydrochloride)]
Invasion rates (%) of each drug’s multiple concentrations (μM) [6]: 97.90%
Invasion rates (%) of each drug’s multiple concentrations (μM) [7]: 100.69%
Invasion rates (%) of each drug’s multiple concentrations (μM) [8]: 97.53%
Invasion rates (%) of each drug’s multiple concentrations (μM) [9]: 95.54%
Invasion rates (%) of each drug’s multiple concentrations (μM) [10]: 46.51%

Cc1ncc([N+](=O)[O-])n1CCO [Metronidazole]
activity at 0.01 µM [1]: 93.6%
activity at 0.01 µM [2]: 93.9%
activity at 0.1 µM [3]: 94.1%
activity at 1 µM [4]: 85.7%
activity at 10 µM [5]: 10.1%

Cn1cnc([N+](=O)[O-])c1Sc1ncnc2nc[nH]c12 [Azathioprine]
activity at 0.01 µM [1]: 85.2%
activity at 0.01 µM [2]: 91.6%
activity at 0.1 µM [3]: 80%
activity at 1 µM [4]: 68.3%
activity at 10 µM [5]: 33.5%

COc1cccc2c1C(=O)c1c(O)c3c(c(O)c1C2=O)C[C@@](O)(C(C)=O)C[C@@H]3O[C@H]1C[C@H](N)[C@H](O)[C@H](C)O1.Cl [Daunorubicin (Hydrochloride)]
Invasion rates (%) of each drug’s multiple concentrations (μM) [6]: 95.45%
Invasion rates (%) of each drug’s multiple concentrations (μM) [7]: 98.71%
Invasion rates (%) of each drug’s multiple concentrations (μM) [8]: 93.45%
Invasion rates (%) of each drug’s multiple concentrations (μM) [9]: 64.89%
Invasion rates (%) of each drug’s multiple concentrations (μM) [10]: 2.25%

Cn1c([N+](=O)[O-])cnc1COC(N)=O [Ronidazole]
activity at 0.01 µM [1]: 64.2%
activity at 0.01 µM (Homo sapiens, 72 h, 0.01 μM (first column so headed), third screening of 25 hit compounds (Table S2), compared to vehicle control, read-out: Invasion rates (%) of each drug’s multiple concentrations): 81.8%
activity at 0.01 µM [2]: 67.3%
activity at 0.01 µM (Homo sapiens, 72 h, 0.01 μM (second column so headed), third screening of 25 hit compounds (Table S2), compared to vehicle control, read-out: Invasion rates (%) of each drug’s multiple concentrations): 87.5%
activity at 0.1 µM [3]: 27.6%
activity at 0.1 µM (Homo sapiens, 72 h, 0.1 μM, third screening of 25 hit compounds (Table S2), compared to vehicle control, read-out: Invasion rates (%) of each drug’s multiple concentrations): 5.74%
activity at 1 µM [4]: 5.96%
activity at 1 µM (Homo sapiens, 72 h, 1 μM, third screening of 25 hit compounds (Table S2), compared to vehicle control, read-out: Invasion rates (%) of each drug’s multiple concentrations): 3.06%
activity at 10 µM [5]: 5.14%
activity at 10 µM (Homo sapiens, 72 h, 10 μM, third screening of 25 hit compounds (Table S2), compared to vehicle control, read-out: Invasion rates (%) of each drug’s multiple concentrations): 2.89%
inhibition at 0.1 µM (Homo sapiens, at 0.1 μM, read-out: inhibition of cell invasion): > 50%

CCCCCCCCCCCC[N+](C)(C)CCOc1ccccc1.[Br-] [Domiphen (bromide)]
Invasion rates (%) of each drug’s multiple concentrations (μM) [6]: 89.87%
Invasion rates (%) of each drug’s multiple concentrations (μM) [7]: 94.08%
Invasion rates (%) of each drug’s multiple concentrations (μM) [8]: 85.67%
Invasion rates (%) of each drug’s multiple concentrations (μM) [9]: 77.63%
Invasion rates (%) of each drug’s multiple concentrations (μM) [10]: 66.00%

COc1ccc2c(O[C@@H]3C[C@H]4C(=O)N[C@]5(C(=O)NS(=O)(=O)C6CC6)C[C@H]5/C=C\CCCCN(C)C(=O)[C@@H]4C3)cc(-c3nc(C(C)C)cs3)nc2c1C [Simeprevir]
activity at 0.01 µM [1]: 98.5%
activity at 0.01 µM [2]: 101%
activity at 0.1 µM [3]: 97.2%
activity at 1 µM [4]: 96.2%
activity at 10 µM [5]: 38.8%
